Measurements reported in patent EP0394122A2, “Use of tetracyclines to manufacture a medicament for the treatment and prevention of AIDS” (priority 1989, dated 1990).

Assays:
[1] = test system: lignée lymphoblastoïde CEM clone 13; experiment: Cytotoxicity on non-infected CEM clone 13 cells (MTT viability); type: cell-based, humaines; details: day 7
Method: (§1) Dans une microplaque de 96 puits on dépose 25 µl/puits d'une solution de produit à tester ou de tampon phosphate isotonique (TPI) dans le cas des contrôles. Les produits sont étudiés à différentes concentrations (souvent 8), à raison de 4 puits par concentration. On ajoute alors 125 µl d'une suspension de cellules CEM dans le milieu RPMI contenant 10 % de sérum de veau foetal, 40 U/ml de pénicilline, 40 µg/ml de streptomycine et 5 µg/ml de polybrène (3500 cellules par puits) et les microplaques sont incubées une heure à 37°C, sous une atmosphère contenant 5 % de gaz carbonique. Pour chaque concentration, l'essai est partagé en 2 parties : une partie sur cellules infectées, pour la détermination de l'activité antivirale et l'autre partie sur cellules non infectées, pour déterminer la cytotoxicité des produits. On infecte alors la première série avec HIV (100 µl par puit d'une suspension de virus LAV-1-BRU contenant 200-300 TCID50) tandis que l'autre série reçoit 100 µl de milieu RPMI tel que défini précédemment. Au bout de 7 jours d'incubation, 175 µl de surnageant sont prélevés et rejetés. La viabilité cellulaire est déterminée selon une modification de la technique décrite par R. Pauwels et coll., J. Virol.
(§2) Les puits, contenant encore les cellules (infectées ou non infectées), reçoivent 10 µl d'une solution de MTT (méthylthiazoletétrazolium) à 5 mg/ml dans du tampon phosphate isotonique. Pendant une période d'incubation de 4 heures, le MTT est converti en un sel de formazan (bleu) à l'intérieur des cellules vivantes et proportionnellement à leur nombre, alors que rien n'apparaît dans les puits ne contenant plus que des cellules mortes. On ajoute alors 120 µl d'isopropanol (contenant 0,04 mole/l d'acide chlorhydrique) et les microplaques sont agitées jusqu'à la solubilisation du bleu de formazan. L'absorption à 540 nm est lue avec un lecteur automatique de réactions ELISA en microplaques.
(§3) Pour les essais de plus longue durée, on procède comme décrit précédemment jusqu'au jour 7. A ce moment, 100 µl de cellules sont prélevés pour mesurer la proportion de cellules vivantes et le restant est remis en culture avec du milieu frais contenant les produits aux mêmes concentrations. Cette opération est répétée tous les 4 jours.

[2] = test system: virus HIV (LAV-1-BRU); experiment: Protection against the cytopathogenic effect of HIV in infected CEM clone 13 cells (MTT viability); type: cell-based; details: day 7
Method: as §1, with “Le test est réalisé sur la lignée lymphoblastoïde CEM clone 13. Dans” for “Dans”, “Virol. Meth., 20, 309-321 (1988).” for “Virol.”
as §2, §3

| Compound | Cellules non infectées Densité optique ([1]; 0,01 µg/ml) | Cellules non infectées Densité optique ([1]; 0,04 µg/ml) | Cellules non infectées Densité optique ([1]; 0,12 µg/ml) | Cellules non infectées Densité optique ([1]; 0,37 µg/ml) | Cellules non infectées Densité optique ([1]; 10 µg/ml) | Cellules non infectées Densité optique ([1]; 30 µg/ml) | Cellules non infectées Densité optique ([1]; 1,11 µg/ml) | Cellules non infectées Densité optique ([1]; 3,33 µg/ml) | Cellules infectées Densité optique ([2]; 0,01 µg/ml) | Cellules infectées Densité optique ([2]; 0,04 µg/ml) | Cellules infectées Densité optique ([2]; 0,12 µg/ml) | Cellules infectées Densité optique ([2]; 0,37 µg/ml) | Cellules infectées Densité optique ([2]; 10 µg/ml) | Cellules infectées Densité optique ([2]; 30 µg/ml) | Cellules infectées Densité optique ([2]; 1,11 µg/ml) | Cellules infectées Densité optique ([2]; 3,33 µg/ml) | further results |
| --- | --- | --- | --- | --- | --- | --- | --- | --- | --- | --- | --- | --- | --- | --- | --- | --- | --- |
| lymecycline [Exemple 4] | 1,75 | 1,80 | 1,90 | 1,75 | 1,85 | 1,05 | 1,80 | 1,85 | 0,75 | 1,25 | 1,21 | 1,20 | 1,55 | 1,05 | 1,28 | 1,40 | – |
| C=C1c2cccc(O)c2C(O)=C2C(=O)C3(O)C(O)=C(C(N)=O)C(=O)C(N(C)C)C3C(O)C12 (stereo not drawn) [Exemple 3, métacycline] | 1,100 | 1,380 | 1,300 | 1,230 | 0,960 | 0,1 | 1,180 | 1,320 | 0,570 | 0,640 | 0,680 | 0,730 | 0,770 | 0,1 | 0,780 | 1,060 | – |
| CN(C)C1C(=O)C(C(N)=O)=C(O)C2(O)C(=O)C3=C(O)c4c(O)cccc4C(C)(O)C3CC12 (stereo not drawn) [Exemple 1, tétracycline] | – | – | – | – | – | – | – | – | – | – | – | – | – | – | – | – | Cellules non infectées Densité optique ([1]; 0,03 µg/ml): 1,025; Cellules non infectées Densité optique ([1]; 0,08 µg/ml): 1,080; Cellules non infectées Densité optique ([1]; 0,25 µg/ml): 1,050; Cellules non infectées Densité optique ([1]; 0,74 µg/ml): 1,100; Cellules non infectées Densité optique ([1]; 20 µg/ml): 0,460; Cellules non infectées Densité optique ([1]; 60 µg/ml): 0,1; Cellules non infectées Densité optique ([1]; 2,22 µg/ml): 1,040; Cellules non infectées Densité optique ([1]; 6,67 µg/ml): 0,900; Cellules infectées Densité optique ([2]; 0,03 µg/ml): 0,350; Cellules infectées Densité optique ([2]; 0,08 µg/ml): 0,350; Cellules infectées Densité optique ([2]; 0,25 µg/ml): 0,340; Cellules infectées Densité optique ([2]; 0,74 µg/ml): 0,420; Cellules infectées Densité optique ([2]; 20 µg/ml): 0,400; Cellules infectées Densité optique ([2]; 60 µg/ml): 0,1; Cellules infectées Densité optique ([2]; 2,22 µg/ml): 0,510; Cellules infectées Densité optique ([2]; 6,67 µg/ml): 0,620 |
